Legend:
ECHCG (Barnyardgrass) = test: Preemergence herbicidal evaluation; assay type: in vivo, Echinochloa crus-galli; conditions: rated 4-5 weeks after treatment; for ECHCG rating: preemergence, 0-9 scale
Summary of the method: (§1)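 Rating at 4–5 wk post-spray on a 0–9 visual scale vs control. Application: aqueous acetone, ~0.0156–0.500 kg/ha, to soil surface after seeding, preemergence.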

GALAP (Galium) = test: Postemergence herbicidal evaluation; assay type: in vivo, Galium aparine; conditions: for GALAP herbicidal rating: postemergence
Summary of the method: (§2)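 Young plants, roughly two weeks from seeding, receive the active ingredient as a sprayed dispersion (acetone/water 50/50, 0.5% TWEEN 20) at 40 psi. Doses span about 0.0156 to 0.500 kg/ha. A visual score from 0 to 9 compares treated with control plants four to five weeks on.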

[1] = system: IPOHE (Morningglory, Ivyleaf); test: Preemergence herbicidal evaluation; assay type: in vivo, Ipomoea hederacea; conditions: rated 4-5 weeks after treatment; for IPOHE rating: preemergence, 0-9 scale
Summary of the method: as §1

[2] = system: IPOHE (Morningglory, Ivyleaf); test: Postemergence herbicidal evaluation; assay type: in vivo, Ipomoea hederacea; conditions: for IPOHE herbicidal rating: postemergence
Summary of the method: as §2

[3] = system: GLXMAW (Soybean, Williams); test: Preemergence herbicidal evaluation; assay type: in vivo, Glycine max, (L.) Merr. cv Williams; conditions: rated 4-5 weeks after treatment; for GLXMAW rating: preemergence, 0-9 scale
Summary of the method: as §1

MOOVA (Monochoria) = test: Preemergence weed control under flooded paddy conditions; assay type: in vivo, Monochoria vaginalis; conditions: rated 3-4 weeks after treatment
Summary of the method: (§3)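 Greenhouse paddy assay. Acetone/water (50/50 v/v) solutions dosed into flood water, equivalent to about 0.0313 to 0.500 kg/ha active ingredient, over seeds planted 0.5 cm deep in silt loam. Score: 0-9 visual, based on stand, vigor, malformation, size and chlorosis, 3 to 4 weeks after treatment.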

ABUTH (Velvetleaf) = test: Preemergence herbicidal evaluation; assay type: in vivo, Abutilon theophrasti; conditions: rated 4-5 weeks after treatment; for ABUTH rating: preemergence, 0-9 scale
Summary of the method: as §1

[4] = system: SAGPY (Arrowhead (Pygmaea)); test: Preemergence weed control under flooded paddy conditions; assay type: in vivo, Sagittaria pygmaea; conditions: rated 3-4 weeks after treatment
Summary of the method: as §3

CASOB (Sicklepod) [5] = test: Preemergence herbicidal evaluation; assay type: in vivo, Cassia obtusifolia; conditions: rated 4-5 weeks after treatment; for CASOB rating: preemergence, 0-9 scale
Summary of the method: as §1

CYPIR (Rice Flatsedge) = test: Postemergence weed control under flooded paddy conditions; assay type: in vivo, Cyperus iria; conditions: postemergence weeds
Summary of the method: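 Containers holding 3–5 cm weeds and rice at 1.5–2.5 leaves are flooded to 1.5–3 cm above soil. Compound in 50/50 v/v aqueous/acetone is then added directly to the water, about 0.0313–0.500 kg/ha. Plants are kept in the greenhouse and rated 0–9 visually at 3–4 weeks.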

AMBEL (Ragweed, Common) = test: Postemergence herbicidal evaluation; assay type: in vivo, Ambrosia artemisifolia; conditions: for AMBEL herbicidal rating: postemergence
Summary of the method: as §2

ZEAMX (Corn, Field) = test: Preemergence herbicidal evaluation; assay type: in vivo, Zea mays; conditions: rated 4-5 weeks after treatment; for ZEAMX rating: preemergence, 0-9 scale
Summary of the method: as §1

[6] = system: TRZAWR (Wheat, Winter, cv Riband); test: Preemergence herbicidal evaluation; assay type: in vivo, Triticum aestivum; conditions: rated 4-5 weeks after treatment; for TRZAWR rating: preemergence, 0-9 scale
Summary of the method: as §1

CASOB (Sicklepod) [7] = test: Postemergence herbicidal evaluation; assay type: in vivo, Cassia obtusifolia; conditions: for CASOB herbicidal rating: postemergence
Summary of the method: as §2

C#CCOC(=O)CC1SC(=Nc2cc(-n3c(=O)cc(C(F)(F)F)n(C)c3=O)c(F)cc2Cl)N(C)C1=O (stereo not drawn) [Compound 90, 2-Propynyl 2-{{2-chloro-5-[3,6-dihydro-3-methyl-2,6-dioxo-4-(trifluoromethyl)-1(2H)-pyrimidinyl]-4-fluorophenyl}imino}-3-methyl-4-oxo-5-thiazolidineacetate]
1.0: IPOHE rating ([1]; 0.0313 kg/ha) | Herbicidal rating CYPIR (CYPIR (Rice Flatsedge); Rate 0.1250 kg/ha, rated 3 to 4 weeks after treatment)
2.0: GLXMAW rating ([3]; 0.0625 kg/ha) | TRZAWR rating ([6]; 0.1250 kg/ha) | CASOB herbicidal rating (CASOB (Sicklepod) [7]; rate 0.0158 kg/ha)
3.0: ECHCG rating (ECHCG (Barnyardgrass); 0.2500 kg/ha) | CASOB rating (CASOB (Sicklepod) [5]; 0.0313 kg/ha) | Herbicidal rating CYPIR (CYPIR (Rice Flatsedge); Rate 0.2500 kg/ha, rated 3 to 4 weeks after treatment) | CASOB herbicidal rating (CASOB (Sicklepod) [7]; rate 0.0315 kg/ha)
5.0: GALAP herbicidal rating (GALAP (Galium); rate 0.0158 kg/ha)
7.0: GALAP herbicidal rating (GALAP (Galium); rate 0.0315 kg/ha) | GALAP herbicidal rating (GALAP (Galium); rate 0.0630 kg/ha) | GLXMAW rating ([3]; 0.1250 kg/ha) | ZEAMX rating (ZEAMX (Corn, Field); 0.1250 kg/ha) | TRZAWR rating ([6]; 0.2500 kg/ha)
8.0: ZEAMX rating (ZEAMX (Corn, Field); 0.2500 kg/ha)
6.0: SAGPY herbicidal effect rating ([4]; 0.0625 kg/ha)
4.0: IPOHE rating ([1]; 0.0625 kg/ha) | SAGPY herbicidal effect rating ([4]; 0.0313 kg/ha) | CASOB herbicidal rating (CASOB (Sicklepod) [7]; rate 0.0630 kg/ha)
0.0: ECHCG rating (ECHCG (Barnyardgrass); 0.0313 kg/ha) | ECHCG rating (ECHCG (Barnyardgrass); 0.0625 kg/ha) | ECHCG rating (ECHCG (Barnyardgrass); 0.1250 kg/ha) | GLXMAW rating ([3]; 0.0313 kg/ha) | Herbicidal rating CYPIR (CYPIR (Rice Flatsedge); Rate 0.0313 kg/ha, rated 3 to 4 weeks after treatment) | Herbicidal rating CYPIR (CYPIR (Rice Flatsedge); Rate 0.0625 kg/ha, rated 3 to 4 weeks after treatment) | ZEAMX rating (ZEAMX (Corn, Field); 0.0313 kg/ha) | ZEAMX rating (ZEAMX (Corn, Field); 0.0625 kg/ha) | TRZAWR rating ([6]; 0.0313 kg/ha) | TRZAWR rating ([6]; 0.0625 kg/ha)
9.0: IPOHE rating ([1]; 0.1250 kg/ha) | IPOHE rating ([1]; 0.2500 kg/ha) | IPOHE herbicidal rating ([2]; rate 0.0158 kg/ha) | IPOHE herbicidal rating ([2]; rate 0.0315 kg/ha) | IPOHE herbicidal rating ([2]; rate 0.0630 kg/ha) | GLXMAW rating ([3]; 0.2500 kg/ha) | MOOVA herbicidal effect rating (MOOVA (Monochoria); 0.0313 kg/ha) | MOOVA herbicidal effect rating (MOOVA (Monochoria); 0.0625 kg/ha) | MOOVA herbicidal effect rating (MOOVA (Monochoria); 0.1250 kg/ha) | MOOVA herbicidal effect rating (MOOVA (Monochoria); 0.2500 kg/ha) | ABUTH rating (ABUTH (Velvetleaf); 0.0313 kg/ha) | ABUTH rating (ABUTH (Velvetleaf); 0.0625 kg/ha) | ABUTH rating (ABUTH (Velvetleaf); 0.1250 kg/ha) | ABUTH rating (ABUTH (Velvetleaf); 0.2500 kg/ha) | SAGPY herbicidal effect rating ([4]; 0.1250 kg/ha) | SAGPY herbicidal effect rating ([4]; 0.2500 kg/ha) | CASOB rating (CASOB (Sicklepod) [5]; 0.0625 kg/ha) | CASOB rating (CASOB (Sicklepod) [5]; 0.1250 kg/ha) | CASOB rating (CASOB (Sicklepod) [5]; 0.2500 kg/ha) | AMBEL herbicidal rating (AMBEL (Ragweed, Common); rate 0.0158 kg/ha) | AMBEL herbicidal rating (AMBEL (Ragweed, Common); rate 0.0315 kg/ha) | AMBEL herbicidal rating (AMBEL (Ragweed, Common); rate 0.0630 kg/ha)

CCOC(=O)CN1C(=O)C(CC(=O)OC)S/C1=N/c1cc(-n2c(=O)cc(C(F)(F)F)n(C)c2=O)c(F)cc1Cl (stereo not drawn) [Compound 54, 2-{{2-Chloro-5-[3,6-dihydro-3-methyl-2,6-dioxo-4-(trifluoromethyl)-1(2H)-pyrimidinyl]-4-fluorophenyl}imino}-4-oxo-3,5-thiazolidinediacetic acid, 3-ethyl methyl ester]
5.0: Preemergence herbicidal rating ECHCG (ECHCG (Barnyardgrass); rate 0.2500 kg/ha) | Postemergence herbicidal rating CASOB (CASOB (Sicklepod) [7]; Rate 0.0158 kg/ha)
1.5: Preemergence herbicidal rating IPOHE ([1]; rate 0.0156 kg/ha) | Preemergence herbicidal rating GLXMAW ([3]; rate 0.0625 kg/ha)
7.5: Preemergence herbicidal rating IPOHE ([1]; rate 0.1250 kg/ha) | Preemergence herbicidal rating GLXMAW ([3]; rate 0.2500 kg/ha) | Preemergence herbicidal rating ABUTH (ABUTH (Velvetleaf); rate 0.0313 kg/ha)
0.5: Preemergence herbicidal rating GLXMAW ([3]; rate 0.0313 kg/ha)
0.0: Preemergence herbicidal rating ECHCG (ECHCG (Barnyardgrass); rate 0.0156 kg/ha) | Preemergence herbicidal rating ECHCG (ECHCG (Barnyardgrass); rate 0.0313 kg/ha) | Preemergence herbicidal rating ECHCG (ECHCG (Barnyardgrass); rate 0.0625 kg/ha) | Preemergence herbicidal rating GLXMAW ([3]; rate 0.0156 kg/ha) | Herbicidal rating MOOVA (MOOVA (Monochoria); 0.0313 kg/ha) | Herbicidal rating MOOVA (MOOVA (Monochoria); 0.0625 kg/ha) | Herbicidal rating SAGPY ([4]; 0.0313 kg/ha) | Herbicidal rating SAGPY ([4]; 0.0625 kg/ha) | Herbicidal rating SAGPY ([4]; 0.1250 kg/ha) | Preemergence herbicidal rating CASOB (CASOB (Sicklepod) [5]; rate 0.0156 kg/ha) | Preemergence herbicidal rating CASOB (CASOB (Sicklepod) [5]; rate 0.0313 kg/ha) | Preemergence herbicidal rating CASOB (CASOB (Sicklepod) [5]; rate 0.0625 kg/ha) | Herbicidal rating CYPIR (CYPIR (Rice Flatsedge); rate 0.0313 kg/ha, 3-4 weeks after treatment) | Preemergence herbicidal rating ZEAMX (ZEAMX (Corn, Field); rate 0.0156 kg/ha) | Preemergence herbicidal rating TRZAWR ([6]; rate 0.0156 kg/ha) | Preemergence herbicidal rating TRZAWR ([6]; rate 0.0313 kg/ha) | Preemergence herbicidal rating TRZAWR ([6]; rate 0.0625 kg/ha)
4.0: Herbicidal rating CYPIR (CYPIR (Rice Flatsedge); rate 0.0625 kg/ha, 3-4 weeks after treatment) | Herbicidal rating CYPIR (CYPIR (Rice Flatsedge); rate 0.1250 kg/ha, 3-4 weeks after treatment) | Herbicidal rating CYPIR (CYPIR (Rice Flatsedge); rate 0.2500 kg/ha, 3-4 weeks after treatment) | Preemergence herbicidal rating ZEAMX (ZEAMX (Corn, Field); rate 0.2500 kg/ha)
4.5: Preemergence herbicidal rating ABUTH (ABUTH (Velvetleaf); rate 0.0156 kg/ha) | Preemergence herbicidal rating CASOB (CASOB (Sicklepod) [5]; rate 0.1250 kg/ha)
1.0: Preemergence herbicidal rating ZEAMX (ZEAMX (Corn, Field); rate 0.0313 kg/ha) | Preemergence herbicidal rating ZEAMX (ZEAMX (Corn, Field); rate 0.0625 kg/ha) | Preemergence herbicidal rating TRZAWR ([6]; rate 0.1250 kg/ha)
3.0: Preemergence herbicidal rating GLXMAW ([3]; rate 0.1250 kg/ha) | Preemergence herbicidal rating ZEAMX (ZEAMX (Corn, Field); rate 0.5000 kg/ha) | Preemergence herbicidal rating TRZAWR ([6]; rate 0.2500 kg/ha)
9.0: Preemergence herbicidal rating ECHCG (ECHCG (Barnyardgrass); rate 0.5000 kg/ha) | Postemergence herbicidal rating GALAP (GALAP (Galium); Rate 0.0315 kg/ha) | Postemergence herbicidal rating GALAP (GALAP (Galium); Rate 0.0630 kg/ha) | Preemergence herbicidal rating IPOHE ([1]; rate 0.0625 kg/ha) | Preemergence herbicidal rating IPOHE ([1]; rate 0.2500 kg/ha) | Preemergence herbicidal rating IPOHE ([1]; rate 0.5000 kg/ha) | Postemergence herbicidal rating IPOHE ([2]; Rate 0.0158 kg/ha) | Postemergence herbicidal rating IPOHE ([2]; Rate 0.0315 kg/ha) | Postemergence herbicidal rating IPOHE ([2]; Rate 0.0630 kg/ha) | Preemergence herbicidal rating GLXMAW ([3]; rate 0.5000 kg/ha) | Preemergence herbicidal rating ABUTH (ABUTH (Velvetleaf); rate 0.0625 kg/ha) | Preemergence herbicidal rating ABUTH (ABUTH (Velvetleaf); rate 0.1250 kg/ha) | Preemergence herbicidal rating ABUTH (ABUTH (Velvetleaf); rate 0.2500 kg/ha) | Preemergence herbicidal rating ABUTH (ABUTH (Velvetleaf); rate 0.5000 kg/ha) | Preemergence herbicidal rating CASOB (CASOB (Sicklepod) [5]; rate 0.5000 kg/ha) | Postemergence herbicidal rating AMBEL (AMBEL (Ragweed, Common); Rate 0.0158 kg/ha) | Postemergence herbicidal rating AMBEL (AMBEL (Ragweed, Common); Rate 0.0315 kg/ha) | Postemergence herbicidal rating AMBEL (AMBEL (Ragweed, Common); Rate 0.0630 kg/ha) | Postemergence herbicidal rating CASOB (CASOB (Sicklepod) [7]; Rate 0.0630 kg/ha)
2.0: Preemergence herbicidal rating ECHCG (ECHCG (Barnyardgrass); rate 0.1250 kg/ha) | Herbicidal rating SAGPY ([4]; 0.2500 kg/ha) | Preemergence herbicidal rating ZEAMX (ZEAMX (Corn, Field); rate 0.1250 kg/ha)
6.0: Postemergence herbicidal rating GALAP (GALAP (Galium); Rate 0.0158 kg/ha) | Preemergence herbicidal rating IPOHE ([1]; rate 0.0313 kg/ha) | Herbicidal rating MOOVA (MOOVA (Monochoria); 0.1250 kg/ha) | Herbicidal rating MOOVA (MOOVA (Monochoria); 0.2500 kg/ha) | Preemergence herbicidal rating CASOB (CASOB (Sicklepod) [5]; rate 0.2500 kg/ha) | Postemergence herbicidal rating CASOB (CASOB (Sicklepod) [7]; Rate 0.0315 kg/ha)

— patent publication US20020137929A1, “1 - (3-heterocyclylphenyl) isothiourea, -isourea, -guanidine and -amidine herbicidal agents” (Intellectual Property Department, BASF Aktiengesellschaft, priority 1998, published 2002)
